Measured values published in patent publication US10383847B2 (priority 2012, dated 2019).
Like-named read-outs stand apart in the source and are kept apart here.

What was measured:
[1] = system: HL-60 cells; conditions: cited from earlier work
[2] = system: K562 cells; conditions: cited from earlier work
[3] = system: AML cells; conditions: DKO insensitive to chemotherapy; cited from earlier work
[4] = system: VCAM-1; conditions: cited from earlier work
[5] = system: human myeloblastic leukemic cells; conditions: cited from earlier work
[6] = system: uridine glucuronyltransferases (UGT); conditions: direct conjugation without initial cytochrome P450 oxidation, more polar metabolites; cited from earlier work
[7] = molecular target: T1, cytochrome P450 1A2 (Homo sapiens, UniProt P05177); conditions: cited from earlier work
[8] = system: VEGF; conditions: cited from earlier work
[9] = molecular target: cytochrome P450 2C19 (Homo sapiens, UniProt P33261); conditions: by oxidation; cited from earlier work
[10] = system: U937; conditions: AML; cited from earlier work
[11] = system: dogs; conditions: 10 mg/kg/d p.o. for 6 months; cited from earlier work
[12] = system: K562; conditions: CML; cited from earlier work
[13] = molecular target: T1, cytochrome P450 1A2; conditions: by oxidation; cited from earlier work
[14] = system: primary AML; conditions: cited from earlier work
[15] = system: HUVEC; conditions: cited from earlier work
[16] = system: Walker 256 carcino-sarcoma; conditions: in vivo; cited from earlier work
[17] = system: murine cancer models; conditions: mouse, in vivo; cited from earlier work
[18] = molecular target: glycogen synthase kinase-3β (GSK-3β) (Homo sapiens, UniProt P49841); conditions: cited from earlier work
[19] = system: patients; conditions: cited from earlier work
[20] = system: HT29; conditions: colorectal cancer; cited from earlier work
[21] = system: Lewis lung sarcoma; conditions: in vivo; cited from earlier work
[22] = system: hepatic cytochrome P450 (CYP); conditions: hepatic CYP-mediated; cited from earlier work
[23] = molecular target: cytochrome P450 2C8 (Homo sapiens, UniProt P10632); conditions: cited from earlier work
[24] = system: ECV304; conditions: cited from earlier work
[25] = molecular target: T2, ERBB3 (Homo sapiens, UniProt P21860); experiment: competition binding kinase scan; conditions: FIGS. 4 and 6
T2 construct: DNA tag / T7 phage fusion; made in house; host or cells: T7 phage in E. coli (BL21-derived) or HEK-293
Experimental: (§1) The scanning procedure is based on a competition binding assay that quantitatively measures the ability of a compound to compete with an immobilized, active-site directed ligand. The assay is performed by combining three components: DNA-tagged kinase; immobilized ligand; and a test compound. The ability of the test compound to compete with the immobilized ligand is measured via quantitative PCR of the DNA tag. This procedure is described in T. A. Carter et al., “Inhibition of Drug-Resistant Mutants of ABL, KIT, and EGF Receptor Kinases,” Proc. Natl. Acad. Sci. USA 102: 11011-11016 (2005), incorporated herein by this reference.
(§2) Kinase assays were carried out as follows: For most assays, kinase-tagged T7 phage strains were grown in parallel in 24-well blocks in an Escherichia coli host derived from the BL21 strain. E. coli were grown to log-phase and infected with T7 phage from a frozen stock (multiplicity of infection=0.4) and incubated with shaking at 32° C. until lysis (90-150 minutes). The lysates were centrifuged (6,000×g) and filtered (0.2 μm) to remove cell debris. The remaining kinases were produced in HEK-293 cells and subsequently tagged with DNA for qPCR detection. Streptavidin-coated magnetic beads were treated with biotinylated small molecule ligands for 30 minutes at room temperature to generate affinity resins for kinase assays. The liganded beads were blocked with excess biotin and washed with blocking buffer (SeaBlock (Pierce), 1% BSA, 0.05% Tween 20, 1 mM DTT) to remove unbound ligand and to reduce nonspecific phage binding. Binding reactions were assembled by combining kinases, liganded affinity beads, and test compounds in 1× binding buffer (20% SeaBlock, 0.17×PBS, 0.05% Tween 20, 6 mM DTT). Test compounds were prepared as 40×stocks in 100% DMSO and directly diluted into the assay. All reactions were performed in polypropylene 384-well plates in a final volume of 0.04 mL. The assay plates were incubated at room temperature with shaking for 1 hour and the affinity beads were washed with wash buffer (1×PBS, 0.05% Tween 20). The beads were then re-suspended in elution buffer (1×PBS, 0.05% Tween 20, 0.5 μM non-biotinylated affinity ligand) and incubated at room temperature with shaking for 30 minutes. The kinase concentration in the eluates was measured by qPCR.
(§3) The compounds were screened at the requested concentrations, and results for primary screen binding interactions were reported as “% Ctrl,” where lower numbers indicate stronger hits (i.e., an increased degree of inhibition of kinase activity) as follows (Equation (1)): […]

[26] = molecular target: T3, STK25 (Homo sapiens, UniProt O00506); experiment: competition binding kinase scan; conditions: FIGS. 4 and 6
T3 construct: DNA tag / T7 phage fusion; made in house; host or cells: T7 phage in E. coli (BL21-derived) or HEK-293
Experimental: as §1, §2, §3

[27] = molecular target: T4, NEK9 (Homo sapiens, UniProt Q8TD19); experiment: competition binding kinase scan
T4 construct: DNA tag / T7 phage fusion; made in house; host or cells: T7 phage in E. coli (BL21-derived) or HEK-293
Experimental: as §1, §2, §3

[28] = system: chronic myelogenous leukemia (CML) patients; conditions: cited from earlier work
[29] = system: AML cell lines; conditions: cited from earlier work
[30] = Chromabs; cited from earlier work
[31] = system: ECV304; conditions: cited from earlier work; remark: listed apart in the source
[32] = system: HUVEC; conditions: cited from earlier work; remark: listed apart in the source
[33] = system: HT-29 colorectal xenografts; conditions: in vivo; cited from earlier work
[34] = system: rats; conditions: up to 400 mg/kg/d p.o. for 30 days; cited from earlier work
[35] = system: HL-60; conditions: AML; cited from earlier work
[36] = system: W256 cells; conditions: cited from earlier work
[37] = system: NB4; conditions: AML; cited from earlier work
[38] = system: primary AML cells; conditions: cited from earlier work
[39] = system: Jurkat cells; conditions: inducing phosphorylation of c-Myb; cited from earlier work
[40] = system: AML NOD/SCID model; conditions: in vivo; cited from earlier work
[41] = Ames; cited from earlier work
[42] = system: HL-60 myeloid cells; conditions: cited from earlier work
[43] = system: malignant cell lines, particularly AML cell lines (MV 4-11, myeloid cell lines); experiment: viability of cancer cell lines after meisoindigo treatment; type: cell-based; conditions: 0.1-100 μM, 24 and 48 hours
Experimental: Viability at 48 hours is shown by (♦); viability at 24 hours is shown by (▪).

[44] = system: HT-29 colorectal cell lines; conditions: cited from earlier work

T4 sequence (Q8TD19 whole entry, the tested form may be a part): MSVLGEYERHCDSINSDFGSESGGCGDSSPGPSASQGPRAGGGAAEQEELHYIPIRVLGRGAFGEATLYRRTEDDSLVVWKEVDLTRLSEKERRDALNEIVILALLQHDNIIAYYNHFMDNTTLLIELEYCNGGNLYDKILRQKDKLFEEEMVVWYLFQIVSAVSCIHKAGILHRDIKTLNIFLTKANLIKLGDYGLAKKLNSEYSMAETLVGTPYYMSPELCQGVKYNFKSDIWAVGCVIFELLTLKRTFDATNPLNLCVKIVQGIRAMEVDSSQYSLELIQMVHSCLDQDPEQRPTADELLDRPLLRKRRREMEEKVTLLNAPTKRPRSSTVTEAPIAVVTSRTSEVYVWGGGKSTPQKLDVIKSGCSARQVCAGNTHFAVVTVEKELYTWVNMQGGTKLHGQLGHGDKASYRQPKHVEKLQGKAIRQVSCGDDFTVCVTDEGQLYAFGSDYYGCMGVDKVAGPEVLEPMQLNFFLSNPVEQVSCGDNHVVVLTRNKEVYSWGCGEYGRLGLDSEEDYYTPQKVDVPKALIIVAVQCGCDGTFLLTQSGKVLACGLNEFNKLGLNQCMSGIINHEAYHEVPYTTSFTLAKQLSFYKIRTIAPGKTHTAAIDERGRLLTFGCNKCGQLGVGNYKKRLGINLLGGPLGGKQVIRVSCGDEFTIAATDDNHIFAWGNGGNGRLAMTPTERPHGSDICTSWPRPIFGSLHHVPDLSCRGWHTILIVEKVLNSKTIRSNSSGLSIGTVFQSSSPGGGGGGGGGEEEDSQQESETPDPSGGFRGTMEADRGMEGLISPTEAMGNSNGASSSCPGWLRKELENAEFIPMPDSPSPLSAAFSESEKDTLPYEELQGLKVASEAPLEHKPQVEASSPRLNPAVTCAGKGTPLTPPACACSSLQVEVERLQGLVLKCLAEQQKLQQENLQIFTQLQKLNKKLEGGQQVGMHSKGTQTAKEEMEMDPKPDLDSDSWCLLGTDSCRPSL
T1 sequence (P05177 whole entry, species assumed): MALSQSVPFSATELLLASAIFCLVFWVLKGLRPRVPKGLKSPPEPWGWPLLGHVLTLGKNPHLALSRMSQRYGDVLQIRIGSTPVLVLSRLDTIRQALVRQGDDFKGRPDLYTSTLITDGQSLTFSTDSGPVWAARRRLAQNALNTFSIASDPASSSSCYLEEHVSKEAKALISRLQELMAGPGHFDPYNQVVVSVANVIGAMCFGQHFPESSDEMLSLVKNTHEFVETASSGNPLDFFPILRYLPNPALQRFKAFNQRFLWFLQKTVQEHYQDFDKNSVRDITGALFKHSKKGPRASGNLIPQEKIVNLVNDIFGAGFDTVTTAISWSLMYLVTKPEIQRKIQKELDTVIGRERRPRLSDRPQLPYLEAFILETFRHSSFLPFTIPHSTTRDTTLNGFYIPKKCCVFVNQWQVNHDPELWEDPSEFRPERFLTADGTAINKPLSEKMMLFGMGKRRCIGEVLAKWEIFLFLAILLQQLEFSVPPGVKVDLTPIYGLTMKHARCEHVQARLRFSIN
glycogen synthase kinase-3β (GSK-3β), sequence (P49841 whole entry, species assumed): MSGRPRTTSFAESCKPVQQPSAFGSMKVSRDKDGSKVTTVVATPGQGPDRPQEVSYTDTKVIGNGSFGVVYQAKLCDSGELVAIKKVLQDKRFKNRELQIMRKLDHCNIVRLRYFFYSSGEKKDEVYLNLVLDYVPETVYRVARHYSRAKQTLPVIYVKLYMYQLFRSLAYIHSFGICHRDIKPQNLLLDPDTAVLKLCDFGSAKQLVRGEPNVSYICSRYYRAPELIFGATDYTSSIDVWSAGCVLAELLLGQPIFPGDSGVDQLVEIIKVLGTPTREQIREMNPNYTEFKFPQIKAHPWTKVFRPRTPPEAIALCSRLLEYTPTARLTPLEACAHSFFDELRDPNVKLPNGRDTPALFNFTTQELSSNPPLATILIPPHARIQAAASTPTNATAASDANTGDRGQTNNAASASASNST
T3 sequence (O00506 whole entry, the tested form may be a part): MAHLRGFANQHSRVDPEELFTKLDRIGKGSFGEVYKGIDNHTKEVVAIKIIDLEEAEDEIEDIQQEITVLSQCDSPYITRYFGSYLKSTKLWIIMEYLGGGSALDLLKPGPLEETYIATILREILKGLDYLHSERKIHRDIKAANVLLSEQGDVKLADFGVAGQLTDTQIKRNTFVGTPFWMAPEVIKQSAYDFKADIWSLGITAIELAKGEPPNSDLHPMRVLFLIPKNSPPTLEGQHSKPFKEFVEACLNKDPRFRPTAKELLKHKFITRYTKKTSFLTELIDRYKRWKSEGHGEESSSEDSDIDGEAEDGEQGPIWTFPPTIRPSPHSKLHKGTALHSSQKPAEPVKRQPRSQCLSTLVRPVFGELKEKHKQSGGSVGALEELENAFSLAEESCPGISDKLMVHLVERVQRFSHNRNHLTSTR
T2 sequence (P21860 20-1342): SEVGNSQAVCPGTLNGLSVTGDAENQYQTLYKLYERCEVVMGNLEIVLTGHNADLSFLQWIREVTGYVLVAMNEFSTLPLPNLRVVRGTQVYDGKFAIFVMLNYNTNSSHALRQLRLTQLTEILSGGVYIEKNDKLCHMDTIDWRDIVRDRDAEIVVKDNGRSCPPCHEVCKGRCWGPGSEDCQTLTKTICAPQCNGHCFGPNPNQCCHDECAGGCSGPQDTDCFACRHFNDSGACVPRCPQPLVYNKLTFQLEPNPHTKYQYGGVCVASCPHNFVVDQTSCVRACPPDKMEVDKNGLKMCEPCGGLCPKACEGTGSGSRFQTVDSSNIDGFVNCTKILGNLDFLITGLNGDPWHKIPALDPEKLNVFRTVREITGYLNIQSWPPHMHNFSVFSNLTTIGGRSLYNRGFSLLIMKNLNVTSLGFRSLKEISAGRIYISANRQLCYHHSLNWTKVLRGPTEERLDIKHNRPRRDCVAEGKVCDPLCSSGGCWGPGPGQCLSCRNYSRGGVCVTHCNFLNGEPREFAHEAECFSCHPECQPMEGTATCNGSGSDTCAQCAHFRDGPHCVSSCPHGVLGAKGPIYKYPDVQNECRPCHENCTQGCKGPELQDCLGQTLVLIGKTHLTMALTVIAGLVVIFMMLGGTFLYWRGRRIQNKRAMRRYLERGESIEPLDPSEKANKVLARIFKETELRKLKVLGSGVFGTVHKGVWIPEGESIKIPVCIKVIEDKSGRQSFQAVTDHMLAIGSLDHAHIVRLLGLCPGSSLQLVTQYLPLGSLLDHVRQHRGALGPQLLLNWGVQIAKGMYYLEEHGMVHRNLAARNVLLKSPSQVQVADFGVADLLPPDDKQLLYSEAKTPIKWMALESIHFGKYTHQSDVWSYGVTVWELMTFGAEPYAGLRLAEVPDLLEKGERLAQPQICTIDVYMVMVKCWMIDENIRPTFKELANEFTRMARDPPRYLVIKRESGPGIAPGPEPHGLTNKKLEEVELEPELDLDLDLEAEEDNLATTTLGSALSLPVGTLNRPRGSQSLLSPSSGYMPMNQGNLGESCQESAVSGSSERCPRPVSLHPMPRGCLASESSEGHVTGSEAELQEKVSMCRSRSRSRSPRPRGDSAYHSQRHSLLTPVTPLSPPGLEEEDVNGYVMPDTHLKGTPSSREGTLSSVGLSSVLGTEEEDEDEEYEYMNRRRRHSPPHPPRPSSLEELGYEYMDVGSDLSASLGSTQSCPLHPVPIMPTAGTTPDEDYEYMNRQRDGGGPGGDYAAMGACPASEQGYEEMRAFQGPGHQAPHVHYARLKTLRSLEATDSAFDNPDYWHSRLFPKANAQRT
cytochrome P450 2C8, sequence (P10632 whole entry): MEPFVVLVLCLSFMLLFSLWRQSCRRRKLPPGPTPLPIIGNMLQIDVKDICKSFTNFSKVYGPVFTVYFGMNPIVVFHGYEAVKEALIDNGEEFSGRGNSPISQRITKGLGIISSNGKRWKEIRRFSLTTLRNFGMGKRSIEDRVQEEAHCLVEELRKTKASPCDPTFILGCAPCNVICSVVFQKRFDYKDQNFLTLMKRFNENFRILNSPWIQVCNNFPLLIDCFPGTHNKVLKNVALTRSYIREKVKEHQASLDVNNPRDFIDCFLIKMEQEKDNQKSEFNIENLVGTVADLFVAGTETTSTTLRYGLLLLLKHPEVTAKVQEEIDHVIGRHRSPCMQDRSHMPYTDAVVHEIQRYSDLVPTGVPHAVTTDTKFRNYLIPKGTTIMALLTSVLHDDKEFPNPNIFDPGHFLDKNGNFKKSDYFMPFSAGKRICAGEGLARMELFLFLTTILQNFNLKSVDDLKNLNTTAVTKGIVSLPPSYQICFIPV
cytochrome P450 2C19, sequence (P33261 whole entry): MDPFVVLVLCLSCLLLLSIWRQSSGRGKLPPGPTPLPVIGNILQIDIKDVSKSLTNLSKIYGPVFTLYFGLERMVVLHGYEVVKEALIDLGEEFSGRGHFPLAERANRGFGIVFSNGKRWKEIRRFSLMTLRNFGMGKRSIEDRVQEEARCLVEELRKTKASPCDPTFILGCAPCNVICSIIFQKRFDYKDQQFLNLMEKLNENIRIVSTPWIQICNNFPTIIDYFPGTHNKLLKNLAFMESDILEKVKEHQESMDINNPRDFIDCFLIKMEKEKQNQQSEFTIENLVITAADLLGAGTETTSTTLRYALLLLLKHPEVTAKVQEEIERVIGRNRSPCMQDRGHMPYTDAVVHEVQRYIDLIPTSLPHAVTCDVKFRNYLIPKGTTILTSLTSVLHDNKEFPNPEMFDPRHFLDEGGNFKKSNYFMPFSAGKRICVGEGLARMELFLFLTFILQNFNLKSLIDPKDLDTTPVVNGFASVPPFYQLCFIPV

SMILES: CN1C(=O)/C(=C2/C(=O)Nc3ccccc32)c2ccccc21 [Meisoindigo, 3-(1,2-dihydro-2-oxo-3H-indol-3-ylidene)-1,3-dihydro-1-methyl-2H-indol-2-one]
- c-myc [1]: decreases
- β-catenin [1]: decreases
- mechanism of apoptosis [2]: novel caspase-dependent pathway
- Bak [3]: upregulation
- Bax [3]: upregulation
- VCAM-1 [4]: decreased
- c-myb gene expression [5]: downregulation
- differentiation [5]: promotes differentiation
- metabolism by enzyme [6]: metabolized
- inhibition of enzyme, concentration [7]: low micromolar concentrations
- VEGF protection [8]: decreased
- metabolism by enzyme [9]: metabolized
- activity against cells [10]: activity
- tolerability [11]: well tolerated
- activity against cells [12]: activity
- metabolism by enzyme [13]: metabolized
- activity against cells [14]: activity
- tubule formulation [15]: decreased
- efficacy in model [16]: effective
- efficacy in model [17]: effective
- concentration at which GSK-3β is inhibited [18]: 5 to 50 nM
- cardiac, hepatic, or renal adverse effects ([19]; patients): no cardiac, hepatic, or renal adverse effects
- mild nausea and vomiting ([19]; patients, spontaneously disappeared in two weeks): 30%
- tolerability ([19]; several patient populations, single agent or in combination with chemotherapy): well tolerated
- activity against cells [20]: activity
- efficacy in model [21]: effective
- metabolic routes [22]: N-demethylation and mono ring hydroxylation
- inhibition of enzyme, concentration [23]: low micromolar concentrations
- activity against cells [24]: activity
- binding to kinase [25]: significant binding
- binding to kinase [26]: significant binding
- kinase inhibition in screen ([27]; FIG. 6): significant inhibition
- binding to kinase ([27]; FIGS. 4 and 6): strongest binding
- complete hematologic response, patients ([28]; 50-200 mg/d p.o.): 33%
- partial hematologic response, patients ([28]; 50-200 mg/d p.o.): 58%
- reduction of leukocyte count, median ([28]; 50-200 mg/d p.o.): 31 days
- reduction of splenomegaly, median ([28]; 50-200 mg/d p.o.): 25 days
- effect of combination with hydroxyurea ([28]; with hydroxyurea): synergistic effect
- cell cycle specific effect [29]: arrest in G(O)/G1
- genotoxicity [30]: not genotoxic
- apoptosis [31]: apoptosis
- activity against cells [32]: activity
- efficacy in model [33]: effective
- tolerability [34]: well tolerated
- activity against cells [35]: activity
- DNA and RNA synthesis [36]: inhibition
- activity against cells [37]: activity
- Bcl-2 [38]: downregulation
- p21 [38]: upregulation
- p27 [38]: upregulation
- Ahi-1 [39]: upregulation
- spleen size [40]: dose-dependent spleen size reduction
- genotoxicity [41]: not genotoxic
- cleavage of pro-caspase 3, 8, 9 and PARP [42]: stimulates the cleavage
- killing of malignant cell lines (viability) [43]: effective in killing
- cell cycle specific effect [44]: G2/M arrest
